The values below come from patent US20240360157A1, “TYK2 INHIBITORS” (BIOGEN MA INC., priority 2021, published 2024).

A value given as a limit tells only on which side of the number the result lay.

Holding throughout (type): biochemical
The target in assay [1] is human TYK2 catalytic kinase (JH1) domain (Homo sapiens (Human), UniProt P29597). Put plainly: ADP-Glo Kinase Assay, recombinant TYK2 catalytic kinase (JH1) domain. Particulars: recombinant JH1 domain 2 nM, 10 μM ATP, JAK3-974 peptide, mean, read-out: TYK2 biochem IC50 (nM) Mean. Summed up:
(§1)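 Reactions ran 100 min with 50 μM substrate peptide (JAK3-342 for JAK1 at 4 nM enzyme; JAK3-974 for JAK2 0.2 nM, JAK3 0.3 nM, TYK2 2 nM), and ADP formed was read by ADP-Glo luminescence. Eleven-point 3-fold series from 10 or 1 μM; IC50 fitted by 4-parameter logistic model.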
In general terms: In ADP-Glo the light output rises with the ADP produced.

Assay [2] concerns the target human JAK1 catalytic kinase (JH1) domain (Homo sapiens (Human), UniProt P23458). Kind of assay: ADP-Glo Kinase Assay, recombinant JAK1 catalytic kinase (JH1) domain. Particulars: recombinant JH1 domain 4 nM, 35 μM ATP, JAK3-342 peptide, mean, read-out: JAK1 biochem IC50 (nM) Mean. Summed up: as §1
In assay [3] the target is human JAK2 catalytic kinase (JH1) domain (Homo sapiens (Human), UniProt O60674). Put plainly: ADP-Glo Kinase Assay, recombinant JAK2 catalytic kinase (JH1) domain. Particulars: recombinant JH1 domain 0.2 nM, 15 μM ATP, JAK3-974 peptide, mean, read-out: JAK2 biochem IC50 (nM) Mean. An outline of the steps: as §1
The target of assay [4] is human JAK3 catalytic kinase (JH1) domain (Homo sapiens (Human), UniProt P52333). Kind of assay: ADP-Glo Kinase Assay, recombinant JAK3 catalytic kinase (JH1) domain. Particulars: recombinant JH1 domain 0.3 nM, 4 μM ATP, JAK3-974 peptide, mean, read-out: JAK3 biochem IC50 (nM) Mean. An outline of the steps: as §1

The term IC50 denotes the concentration at which inhibition is half-maximal.

Sequence of human JAK3 catalytic kinase (JH1) domain (P52333 822-1111): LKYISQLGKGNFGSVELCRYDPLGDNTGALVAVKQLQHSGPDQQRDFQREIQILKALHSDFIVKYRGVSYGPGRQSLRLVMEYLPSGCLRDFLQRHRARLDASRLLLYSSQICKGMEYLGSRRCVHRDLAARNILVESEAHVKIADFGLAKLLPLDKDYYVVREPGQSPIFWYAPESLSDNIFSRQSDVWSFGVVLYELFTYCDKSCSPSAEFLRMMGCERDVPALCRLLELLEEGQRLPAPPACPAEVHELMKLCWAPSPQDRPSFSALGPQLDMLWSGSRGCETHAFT
Sequence of human JAK2 catalytic kinase (JH1) domain (O60674 849-1124): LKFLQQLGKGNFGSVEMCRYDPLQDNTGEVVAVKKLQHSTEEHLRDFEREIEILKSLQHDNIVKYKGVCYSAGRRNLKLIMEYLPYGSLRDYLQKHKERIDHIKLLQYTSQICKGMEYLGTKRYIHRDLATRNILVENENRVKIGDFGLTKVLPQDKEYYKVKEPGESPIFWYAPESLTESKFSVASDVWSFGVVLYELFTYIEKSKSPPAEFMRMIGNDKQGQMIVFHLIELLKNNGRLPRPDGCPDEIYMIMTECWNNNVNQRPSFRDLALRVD
Sequence of human TYK2 catalytic kinase (JH1) domain (P29597 897-1176): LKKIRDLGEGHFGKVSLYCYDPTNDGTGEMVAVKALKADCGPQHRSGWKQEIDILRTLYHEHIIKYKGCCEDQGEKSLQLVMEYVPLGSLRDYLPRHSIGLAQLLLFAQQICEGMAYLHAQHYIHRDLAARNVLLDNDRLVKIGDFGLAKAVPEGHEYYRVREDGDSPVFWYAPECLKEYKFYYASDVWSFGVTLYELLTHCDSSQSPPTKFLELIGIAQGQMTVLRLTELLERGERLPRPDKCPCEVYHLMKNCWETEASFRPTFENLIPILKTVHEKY
Sequence of human JAK1 catalytic kinase (JH1) domain (P23458 875-1153): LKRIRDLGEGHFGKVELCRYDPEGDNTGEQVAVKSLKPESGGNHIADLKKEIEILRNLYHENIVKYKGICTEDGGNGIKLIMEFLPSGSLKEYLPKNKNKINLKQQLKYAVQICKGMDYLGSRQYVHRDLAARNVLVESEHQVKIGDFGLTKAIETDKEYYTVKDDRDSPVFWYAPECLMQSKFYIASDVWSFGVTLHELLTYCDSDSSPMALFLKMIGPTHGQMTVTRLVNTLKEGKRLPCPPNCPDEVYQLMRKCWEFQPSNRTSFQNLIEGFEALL

Turning to `Cn1cc(-c2cc3c(N4CC5CCC(C4)N5C(=O)[C@@H]4C[C@H]4F)ncnn3c2)ccc1=O` [Example 165], the IC50 in assay [1] came out at 40.3 nM; in assay [2], 478 nM; in assay [3], 902 nM; in assay [4], 4140 nM.
Take `O=C(C1CC1)N1C2CCC1CN(c1ncnn3cc(-c4cnn(C(F)F)c4)cc13)C2` [Example 150]: the IC50 in assay [1] turned out to be 190 nM; in assay [2], 1850 nM; in assay [3], 3370 nM; in assay [4], 5620 nM.
As to `COc1cc(-c2cc3c(N4CC5CCC(C4)N5C(=O)[C@@H]4C[C@H]4F)c(F)cnc3[nH]2)ccn1` [Example 139, (3-(5-fluoro-2-(2-methoxypyridin-4-yl)-1H-pyrrolo[2,3-b]pyridin-4-yl)-3,8-diazabicyclo[3.2.1]octan-8-yl)((1S,2R)-2-fluorocyclopropyl)methanone], the IC50 in assay [1] was determined as 5.5 nM; in assay [2], 39 nM; in assay [3] it was 74 nM; in assay [4], 144 nM.
On the same counts, the results for `O=C(C1CC(F)(F)C1)N1C2CCC1CN(c1ncnn3cc(-c4cnn(C(F)F)c4)cc13)C2` [Example 55, (3,3-difluorocyclobutyl)(3-(6-(1-(difluoromethyl)-1H-pyrazol-4-yl)pyrrolo[2,1-f][1,2,4]triazin-4-yl)-3,8-diazabicyclo[3.2.1]octan-8-yl)methanone] are 290 nM, 2790 nM, 7180 nM and 8580 nM.
Turning to `O=C(N1C2CCC1CN(c1ncnn3cc(-c4cnn(C(F)F)c4)cc13)C2)C1(C(F)(F)F)CC1` [Example 45, (3-(6-(1-(difluoromethyl)-1H-pyrazol-4-yl)pyrrolo[2,1-f][1,2,4]triazin-4-yl)-3,8-diazabicyclo[3.2.1]octan-8-yl)(1-(trifluoromethyl)cyclopropyl)methanone], the IC50 worked out at 988 nM in assay [1], 7300 nM in assay [2], 9490 nM in assay [3] and 6010 nM in assay [4].
For `Cn1cc(-c2cc3c(N4CC5CCC(C4)N5C(=O)[C@@H]4CC4(F)F)ccnn3c2)cn1` [Example 22, ((S)-2,2-difluorocyclopropyl)(3-(6-(1-methyl-1H-pyrazol-4-yl)pyrrolo[1,2-b]pyridazin-4-yl)-3,8-diazabicyclo[3.2.1]octan-8-yl)methanone], in that order: 1.8 nM, 55 nM, 32 nM and 445 nM.
With `Cn1cc(-c2cc3c(N4CC5CCC(C4)N5C(=O)C(C)(F)F)ncnn3c2)cn1` [Example 72, 2,2-difluoro-1-(3-(6-(1-methyl-1H-pyrazol-4-yl)pyrrolo[2,1-f][1,2,4]triazin-4-yl)-3,8-diazabicyclo[3.2.1]octan-8-yl)propan-1-one], the IC50 in assay [1] was 206 nM; in assay [2], 759 nM; in assay [3], 2340 nM; in assay [4], 703 nM.
On the same counts, the results for `Cn1cc(-c2cc3c(N4CC5CCC(C4)N5S(=O)(=O)[C@H]4CC4(F)F)ccnn3c2)cn1` [Example 197, 4-(8-(((S)-2,2-difluorocyclopropyl)sulfonyl)-3,8-diazabicyclo[3.2.1]octan-3-yl)-6-(1-methyl-1H-pyrazol-4-yl)pyrrolo[1,2-b]pyridazine] are 16.7 nM, 322 nM, 99 nM and 701 nM.
For `O=C([C@H]1C[C@H](C(F)(F)F)C1)N1C2CCC1CN(c1ncnn3cc(-c4cnn(C(F)F)c4)cc13)C2` [Example 28, (3-(6-(1-(difluoromethyl)-1H-pyrazol-4-yl)pyrrolo[2,1-f][1,2,4]triazin-4-yl)-3,8-diazabicyclo[3.2.1]octan-8-yl)((1r,3r)-3-(trifluoromethyl)cyclobutyl)methanone], in that order: 636 nM, 2140 nM, 10000 nM and 10000 nM.
On the same counts, the results for `CCn1ncc(-c2cc3c(N4CC5CCC(C4)N5C(=O)C4CC4)ncnn3c2)c1F` [Example 161] are 120 nM, 492 nM, 2460 nM and 1230 nM.
Turning to `Cn1cc(-c2cn3ncc(F)c(N4CC5CCC(C4)N5C(=O)[C@@H]4C[C@H]4F)c3n2)cn1` (stereo in doubt) [Example 141, (3-(7-fluoro-2-(1-methyl-1H-pyrazol-4-yl)imidazo[1,2-b]pyridazin-8-yl)-3,8-diazabicyclo[3.2.1]octan-8-yl)((1S,2R)-2-fluorocyclopropyl)methanone], the IC50 in assay [1] amounted to 9.4 nM; in assay [2], 57 nM; in assay [3], 97 nM; in assay [4] it was 285 nM.
On the same counts, the results for `CCC(=O)N1C2CCC1CN(c1ncnn3cc(-c4cnn(C)c4)cc13)C2` [Example 57, 1-(3-(6-(1-methyl-1H-pyrazol-4-yl)pyrrolo[2,1-f][1,2,4]triazin-4-yl)-3,8-diazabicyclo[3.2.1]octan-8-yl)propan-1-one] are 941 nM, 5140 nM, 10000 nM and 7850 nM.
For `CC1(C(=O)N2C3CCC2CN(c2ncnn4cc(-c5cnn(C(F)F)c5)cc24)C3)CCC1` [Example 52, (3-(6-(1-(difluoromethyl)-1H-pyrazol-4-yl)pyrrolo[2,1-f][1,2,4]triazin-4-yl)-3,8-diazabicyclo[3.2.1]octan-8-yl)(1-methylcyclobutyl)methanone], in that order: 425 nM, 6480 nM, 9080 nM and 9370 nM.
Regarding `O=C(C1CC1)N1C2CCC1CN(c1ncnn3cc(-c4ccccc4F)cc13)C2` [Example 182], the IC50 was 704 nM in assay [1], 3660 nM in assay [2], 10000 nM in assay [3] and 8600 nM in assay [4].
Consider `COc1cc(-c2cc3c(N4CC5CCC(C4)N5C(=O)[C@@H]4C[C@H]4F)ccnn3c2)ccn1` [Example 88, ((1S,2R)-2-fluorocyclopropyl)(3-(6-(2-methoxypyridin-4-yl)pyrrolo[1,2-b]pyridazin-4-yl)-3,8-diazabicyclo[3.2.1]octan-8-yl)methanone], for which the IC50 came out at 1.9 nM in assay [1], 23 nM in assay [2], 46 nM in assay [3] and 604 nM in assay [4].
On the same counts, the results for `Cn1cc(-c2cc3c(N4CC5CCC(C4)N5C(=O)[C@@H]4C[C@H]4F)ncnn3c2)cn1` [Example 82, ((1S,2R)-2-fluorocyclopropyl)(3-(6-(1-methyl-1H-pyrazol-4-yl)pyrrolo[2,1-f][1,2,4]triazin-4-yl)-3,8-diazabicyclo[3.2.1]octan-8-yl)methanone] are 400 nM, 1650 nM, 8860 nM and 3060 nM.
With `O=C([C@@H]1CC1(F)F)N1C2CCC1CN(c1ncnc3[nH]c(-c4cnn(C(F)F)c4)cc13)C2` [Example 222, ((S)-2,2-difluorocyclopropyl)(3-(6-(1-(difluoromethyl)-1H-pyrazol-4-yl)-7H-pyrrolo[2,3-d]pyrimidin-4-yl)-3,8-diazabicyclo[3.2.1]octan-8-yl)methanone], the IC50 in assay [1] came out at 5.7 nM; in assay [2], 132 nM; in assay [3], 128 nM; in assay [4], 999 nM.
On the same counts, the results for `O=C(C1CC1)N1C2CCC1CN(c1ncnn3cc(-c4cnn(C5CCC5)c4)cc13)C2` [Example 149] are 141 nM, 942 nM, 3130 nM and 3010 nM.
On the same counts, the results for `CN(C)c1ccc(-c2cc3c(N4CC5CCC(C4)N5C(=O)[C@@H]4C[C@H]4F)ncnc3[nH]2)cn1` [Example 226, (3-(6-(6-(dimethylamino)pyridin-3-yl)-7H-pyrrolo[2,3-d]pyrimidin-4-yl)-3,8-diazabicyclo[3.2.1]octan-8-yl)((1S,2R)-2-fluorocyclopropyl)methanone] are 14.9 nM, 116 nM, 244 nM and 468 nM.
As to `O=C([C@@H]1C[C@H]1F)N1C2CCC1CN(c1ccnn3cc([C@@H]4CC4(F)F)cc13)C2` (single isomer, unassigned) [Example 136], the concentration for half-maximal inhibition (IC50) in assay [1] is 381 nM; in assay [2], 6180 nM; in assay [3], at least 10000 nM; in assay [4] it was at least 10000 nM.
Regarding `O=C([C@@H]1C[C@H]1F)N1C2CCC1CN(c1ncnn3cc(-c4cnn(C(F)F)c4)cc13)C2` [Example 1, (3-(6-(1-(difluoromethyl)-1H-pyrazol-4-yl)pyrrolo[2,1-f][1,2,4]triazin-4-yl)-3,8-diazabicyclo[3.2.1]octan-8-yl)((1S,2R)-2-fluorocyclopropyl)methanone], the IC50 turned out to be 9 nM in assay [1], 228 nM in assay [2], 315 nM in assay [3] and 1300 nM in assay [4].
On the same counts, the results for `Cn1cc(-c2nc3c(N4CC5CCC(C4)N5C(=O)[C@@H]4C[C@H]4F)c(F)cnc3[nH]2)c(F)n1` [Example 213, (3-(6-fluoro-2-(3-fluoro-1-methyl-1H-pyrazol-4-yl)-3H-imidazo[4,5-b]pyridin-7-yl)-3,8-diazabicyclo[3.2.1]octan-8-yl)((1S,2R)-2-fluorocyclopropyl)methanone] are 2.5 nM, 37 nM, 25 nM and 87 nM.
